# Test results published in ChEMBL document CHEMBL4831492, “Design and synthesis of 2-(2-isonicotinoylhydrazineylidene)propanamides as InhA inhibitors with high antitubercular activity” (Eur J Med Chem, 2021).
# Active and inactive are the calls of the source. No cut-off for these calls is given here.
# Assays:
# [1] = tested on: Mycobacterium tuberculosis; experiment: Antimycobacterial activity against drug susceptible Mycobacterium tuberculosis H37Rv assessed as minimal inhibitory concentration required for complete inhibition of mycobacterial growth incubated for 14 days; type: functional; conditions: 336 h, time 14 day
# [2] = tested on: Mycobacterium tuberculosis; experiment: Antimycobacterial activity against drug susceptible Mycobacterium tuberculosis H37Rv assessed as minimal inhibitory concentration required for complete inhibition of mycobacterial growth incubated for 21 days; type: functional; conditions: 504 h, time 21 day
# [3] = tested on: Mycobacterium kansasii; experiment: Antimycobacterial activity against drug resistant Mycobacterium kansasii 6509/96 assessed as minimal inhibitory concentration required for complete inhibition of mycobacterial growth incubated for 7 days; type: functional; conditions: 6509/96, 168 h, time 7 day
# [4] = tested on: Mycobacterium kansasii; experiment: Antimycobacterial activity against drug resistant Mycobacterium kansasii 6509/96 assessed as minimal inhibitory concentration required for complete inhibition of mycobacterial growth incubated for 14 days; type: functional; conditions: 6509/96, 336 h, time 14 day
# [5] = tested on: Mycobacterium kansasii; experiment: Antimycobacterial activity against drug resistant Mycobacterium kansasii 6509/96 assessed as minimal inhibitory concentration required for complete inhibition of mycobacterial growth incubated for 21 days; type: functional; conditions: 6509/96, 504 h, time 21 day
# [6] = tested on: Mycobacterium kansasii; experiment: Antimycobacterial activity against drug resistant Mycobacterium kansasii 235/80 assessed as minimal inhibitory concentration required for complete inhibition of mycobacterial growth incubated for 7 days; type: functional; conditions: 235/80, 168 h, time 7 day
# [7] = tested on: HepG2; experiment: Cytotoxicity against human HepG2 cells assessed as reduction in cell viability incubated overnight followed by compound washout by MTT assay; type: cell-based
# [8] = tested on: HepG2; experiment: Cytostatic activity in human HepG2 cells assessed as reduction in cell viability incubated overnight followed by compound washout and further incubated for 72 hrs in medium containing serum by MTT assay; type: functional, cell-based; conditions: HepG2, 72 h
# [9] = tested on: Mycobacterium avium; experiment: Antimycobacterial activity against drug resistant Mycobacterium avium 330/88 assessed as inhibition of mycobacterial growth at 125 uM incubated for 14 days; type: functional, organism-based; conditions: time 14.0 day
# [10] = tested on: Mycobacterium avium; experiment: Antimycobacterial activity against drug resistant Mycobacterium avium 330/88 assessed as inhibition of mycobacterial growth at 125 uM incubated for 21 days; type: functional, organism-based; conditions: time 21.0 day
# [11] = tested on: Mycobacterium kansasii; experiment: Antimycobacterial activity against drug resistant Mycobacterium kansasii 235/80 assessed as inhibition of mycobacterial growth at 62.5 uM incubated for 14 days; type: functional, organism-based; conditions: time 14.0 day
# [12] = tested on: Mycobacterium kansasii; experiment: Antimycobacterial activity against drug resistant Mycobacterium kansasii 235/80 assessed as inhibition of mycobacterial growth at 62.5 uM incubated for 21 days; type: functional, organism-based; conditions: time 21.0 day
# [13] = Selectivity index, ratio of CC50 for cytotoxicity against human HepG2 cells to MIC for antimycobacterial activity against drug susceptible Mycobacterium tuberculosis H37Rv; type: toxicity, cell-based; conditions: read-out: Selectivity Index
# [14] = Selectivity index, ratio of CC50 for cytotoxicity against human HepG2 cells to MIC for antimycobacterial activity against drug susceptible Mycobacterium […]; type: toxicity, cell-based; conditions: read-out: Selectivity Index
smiles,measurement,setting,value
C/C(=N\NC(=O)c1ccncc1)C(=O)Nc1cccc(Cl)c1,MIC,[1],0.125 µM
same,MIC,[2],0.125 µM
same,MIC,[3],2 µM
same,MIC,[4],2 µM
same,MIC,[5],4 µM
same,MIC,[6],32 µM
same,IC50,[7],> 50 µM
same,IC50,[8],> 50 µM
same,Activity,[9],inactive
same,Activity,[10],inactive
same,Activity,[11],inactive
same,Activity,[12],inactive
same,selectivity ratio,[13],> 400
same,selectivity ratio,[14],> 12.5
